{"source": "patent US11357766B2", "about": "“Compositions and methods for treating cancer” (Texas Tech University System, priority 2017, dated 2022)", "key": {"[1]": {"system": "Akt, STAT3 and sonic hedgehog signaling in AsPC1, BxPC3, PANC1, and MIAPaCa2 cells", "assay": "Western blot analysis of whole cell lysates", "format": "cell-based, human", "details": "48 hours", "method": "Briefly, in FIG. 3A AsPC1 cells, FIG. 3B BxPC3 cells, FIG. 3C PANC1 cells, and FIG. 3D MIAPaCa2 cells, were treated with 5, 7.5 and 10 μM pimavanserin tartrate for 48 hours. Representative blots showing a concentration-dependent effect of pimavamserin tartrate on pAkt(S473), pSTAT3(Y705), c-Myc, Oct-4, SOX-2, NANOG, CD44, GLI1, cleaved caspase3. β-actin was used as a loading control. Figures shown are the representative blots of at least three independent tests.\nWestern blot analysis. AsPC1, BxPC3, PANC1, and MIAPaCa2 cells were treated with varying concentrations of pimavanserin tartrate for 48 hours. After 48 hours, cells were collected and subjected to PBS wash twice. The whole cell lysates were prepared using 4% (w/v) CHAPS in urea-tris buffer. Protein content in the lysates were estimated using Bradford reagent (Bio-rad, California, USA). 40 μg of protein from whole cell lysates were subjected to SDS-PAGE and the resolved proteins were transferred onto PVDF membrane. The membranes were probed for primary antibodies against pSTAT3(Y705), pAkt(S473), β-catenin, c-Myc, OCT4, SOX-2, NANOG, CD44, GLI1, cleaved caspase-3 and β-actin. All primary antibodies were procured from Cell Signaling Technologies (Danvers, Mass.) except β-actin (Sigma Aldrich, St. Louis, Mo.). Dilution factor was 1:1000 for all the antibodies from Cell Signaling and 1:2000 for β-actin antibody. The membranes were developed as described by the present inventors (16).\nInhibition of Akt, STAT3 and sonic hedgehog signaling by pimavanserin. Since significant growth suppressive effects and apoptosis by pimavanserin treatment were observed, the inventors further elucidated the molecular mechanism by which pimavanserin mediates the above-mentioned effects. The inventors performed western blot analysis using whole cell lysates from AsPC1, BxPC3, PANC1, and MIAPaCa2 cells treated with 0, 5, 7.5 and 10 μM pimavanserin for 48 hours. […] Akt and STAT3 signaling modulates OCT-4, SOX-2, NANOG to activate GLI1, a transcription factor involved in sonic hedgehog signaling (7)."}, "[2]": {"system": "subcutaneously implanted BxPC3 tumors", "assay": "Pancreatic tumor xenograft model", "format": "in vivo", "details": "10 mg/kg oral gavage everyday", "method": "Briefly, In FIG. 4A 1×10^6 BxPC3 cells in 1:1 mixture of PBS and matrigel were subcutaneously implanted in the right flank of 4-6 week old female athymic nude mice (n=5). […] The treatment was given till day 40. Values are plotted as mean±SEM. FIG. 4B orthotopic tumors were aseptically removed and the tumor size was compared between control and pimavanserin treated group. In FIG. 4C mice weight was recorded once in 10 days. The average weight of the mice is plotted against days. Values are plotted as mean±SEM.\nPancreatic tumor xenograft model. Female athymic nude mice (4-6 week old) were purchased from Harlan Laboratory (Livermore, Calif.). All the experiments were performed under the strict compliance and regulations approved from Institutional Animal Care and Use Committee (IACUC), Texas Tech University Health Sciences Center, Amarillo, Tex. 1×10^6 BxPC3 cells were implanted in right flank of the mice. […] Group I was assigned as control group, which received the vehicle only (PBS). Group II mice received 10 mg/kg Pimavanserin tartrate by oral gavage everyday. Treatment with Pimavanserin was started at day 13. Tumor growth was monitored by measuring the tumor volume twice a week until day 40 using a Vernier caliper as described by the present inventors (11). The study was terminated at day 40 due to tumor burden. The mice were euthanized and the tumors were aseptically removed. A part of tumor was snap frozen for western blotting and the other part was fixed in formalin for immunohistochemistry and TUNEL analysis. Mice weight was monitored once in ten days.\nPimavanserin suppresses the growth of subcutaneously implanted pancreatic tumors. To examine the in-vivo efficacy of pimavanserin and to establish the mechanism of tumor growth inhibition in pancreatic cancer, BxPC3 cells were implanted subcutaneously in female athymic nude mice. Once the tumor volume reached 70 mm^3 in size, experimental group of mice were treated with 10 mg/kg pimavanserin by oral gavage everyday. […]"}, "[3]": {"system": "orthotopically implanted PANC1-luc tumors", "assay": "Orthotopic pancreatic tumor model", "format": "in vivo", "method": "1×10^6 PANC-1 luc cells were surgically implanted on the pancreas of 4-6 week old female athymic nude mice (n=5). Mice were treated with 10 mg/kg pimavanserin tartrate at day 17 till day 69. In FIG. 5A tumor luminescence was measured about twice a week and plotted against days. Values are plotted as mean±SEM. In FIG. 5B orthotopic tumors were aseptically removed and the tumor size was compared between control and pimavanserin tartrate treated group. […] The average weight of the mice is plotted against days. Values are plotted as mean±SEM.\nOrthotopic pancreatic tumor model. 4-6 week old female athymic nude mice were used for orthotopic injection. All the experiments were performed under the strict compliance and regulations approved from Institutional Animal Care and Use Committee (IACUC), Texas Tech University Health Sciences Center, Amarillo, Tex. Mice were anesthetized by using isoflorane and a minor incision was made in the left abdomen. Stably transfected luciferase-expressing PANC1 (PANC1-luc) cells were orthotopically-implanted in the pancreas. 1×10^6 exponentially growing PANC1-luc cells in 20 μl PBS suspension were injected into the sub-capsular region on the pancreas using a 30-gauge sterile needle. The peritoneum and skin incisions were closed sequentially with absorbable suture. Buprenorphine was administered as a pain killer to mice at every 8 hours for 2 days. The growth of orthotopically-implanted tumors was monitored by measuring the luminescence by IVIS imaging (Calliper Life Sciences). In order to determine the basal luminescence value, mice were imaged on the same day after injecting luciferin (3 mg/mouse, i.p.). Mice were randomly divided into two groups (control and treatment) on day 17 after orthotopic injection of PANC1 luc cells. Control group received vehicle only whereas treatment group received 10 mg/kg pimavanserin tartrate by oral gavage everyday. The study was terminated at day 69 by humanely euthanizing the mice using CO2 overdose. The mice was dissected and representative mouse from control and treatment groups were imaged for luminescence. The pancreas from control and treatment groups were aseptically excised out and snap frozen for western blot analysis, whereas few pancreas were fixed in formalin for immunohistochemical and TUNEL analysis. Mice weight was monitored once a week.\nPimavanserin inhibits the growth of orthotopic pancreatic tumors. In order to further validate the in-vivo efficacy of pimavanserin, PANC-1 luc cells were orthotopically implanted into the pancreas of athymic nude mice. After 17 days of tumor implantation, mice were treated with 10 mg/kg pimavanserin by oral gavage everyday. […] After terminating the experiment, tumors were removed and weighed. The average weight of pimavanserin treated tumors was 46% less when compared to the tumors excised form control group (FIGS. 5B & 5D). Furthermore, the inventors also compared the luminescence between both the groups in isolated pancreas."}, "[4]": {"details": "0, 5, 7.5 and 10 μM, all the cell lines tested, concentration dependent"}}}
{"smiles": "CC(C)COc1ccc(CNC(=O)N(Cc2ccc(F)cc2)C2CCN(C)CC2)cc1", "note": "[pimavanserin, N-(4-fluorophenylmethyl)-N-(1-methylpiperidin-4-yl)-N′-(4-(2-methylpropyloxy)phenylmethyl)carbamide]", "values": [{"measurement": "expression of GLI1", "setting": "[1]; [4]", "value": "significantly inhibited"}, {"measurement": "phosphorylation of STAT3 at Tyr705", "setting": "[1]; [4]", "value": "significantly inhibited"}, {"measurement": "cancer stem cell markers OCT4, SOX-2, NANOG and CD44", "setting": "[1]", "value": "remarkable inhibition"}, {"measurement": "phosphorylation of Akt at Ser473", "setting": "[1]; AsPC1, BxPC3, and MIAPaCa2 cells", "value": "significantly reduced"}, {"measurement": "expression of β-catenin", "setting": "[1]; all the cell lines tested", "value": "reduced"}, {"measurement": "cleavage of caspase 3", "setting": "[1]; pancreatic cancer cells, concentration dependent", "value": "significant cleavage"}, {"measurement": "average tumor volume at the day of sacrifice", "setting": "[2]; day 40, control group 873.395 mm3", "value": 429.01, "unit": "mm3"}, {"measurement": "overall weight of mice vs control (general signs of toxicity)", "setting": "[2]; throughout the study", "value": "similar"}, {"measurement": "suppression of growth of BxPC3 tumors", "setting": "[2]; vs control", "value": 50, "unit": "%"}, {"measurement": "overall weight of the mice vs control (general signs of toxicity)", "setting": "[3]; 10 mg/kg oral gavage everyday", "value": "did not reduce"}, {"measurement": "suppression of orthotopic pancreatic tumor growth", "setting": "[3]; 10 mg/kg oral gavage everyday", "value": 75, "unit": "%"}, {"measurement": "total flux (luminescence) at the end of the experiment", "setting": "[3]; 10 mg/kg oral gavage everyday from day 17, day 69, control 1.45542×10^9 photons/second", "value": "3.386×10^8 photons/sec"}, {"measurement": "decrease of luminescence vs control group", "setting": "[3]; 10 mg/kg oral gavage everyday, end of the experiment", "value": 75, "unit": "%"}, {"measurement": "average weight of tumors, less than control group", "setting": "[3]; 10 mg/kg oral gavage everyday, excised tumors after terminating the experiment", "value": 46, "unit": "%"}]}
